Test results: patent US20240190916A1, “NOVEL PEPTIDE” (HYSENSBIO, priority 2022, published 2024)

Tests used:
Format in all cases: cell-based
[1] = system: DSPP gene; experiment: DSPP mRNA level by real-time PCR in human dental pulp cells; conditions: peptide 10 ug/ml, compared to untreated control
Method: Human pulp tissue cells were isolated from wisdom teeth of 10 adults (18-22 years old) at Seoul National University Dental Hospital. Specifically, all experiments were performed with the patient's consent after approval from the hospital's Institutional Review Board, and wisdom teeth are cut according to a method of Jung H S et al (J Mol Histol. (2011)), exposing the pulp and isolating the pulp with forceps. The isolated pulp was minced on both sides, placed in a 60 mm dish, covered with a cover slip, and then cultured in Dulbecco's Modified Eagle medium. It is known that human dental pulp cells can differentiate into odontoblasts, osteoblasts, cementoblasts and periodontal ligament cells under various conditions (Tissue Eng Part A. 2014 April; 20(7-8): 1342-51).
(§1) Total RNA of human dental pulp cells and mesenchymal stem cells was isolated using a TRIzol reagent. cDNA was synthesized using 2 μg of total RNA, 1 μl of reverse transcriptase, and 0.5 μg of oligo (dT). The synthesized cDNA was used for real-time polymerase chain reaction. The real-time polymerase chain reaction was performed in ABI PRISM 7500 sequence detection system (Applied Biosystems) using SYBR GREEN PCR Master Mix (Takara, Japan). The real-time polymerase chain reaction was performed at 94° C., 1 min; 95° C., 15 sec-60° C., 34 sec was performed under the condition of repeating 40 cycles. An analysis of the results was evaluated using a comparative cycle threshold (CT) method, and primer base sequences are listed in Table 9.
The effect of each group of peptides on DSPP mRNA expression was confirmed by real-time PCR (Table 10).

[2] = system: BSP gene; experiment: BSP mRNA level by real-time PCR in human-derived mesenchymal stem cells; conditions: compared to untreated control
Method: (§2) It was cultured at 37° C. in humid air containing 5% CO2 and used for the experiment. Human mesenchymal stem cells (hBMSCs) were purchased from Lonza (LONZA, Switzerland) and used. hBMSCs were cultured in a-MEM (Invitrogen) medium supplemented with 10% heat-inactivated bovine serum.
as §1
(§3) BSP and DMP1 genes are used as markers for differentiation of osteoblasts and cementoblasts, and are known as important genes for calcification of a bone and cementum. The effects of each group of peptides on BSP and DMP1 mRNA expression were confirmed by a real-time PCR (Tables 11 and 12).

[3] = system: DMP1 gene; experiment: DMP1 mRNA level by real-time PCR in human-derived mesenchymal stem cells; conditions: compared to untreated control
Method: as §2, §1, §3

Row | Sequence | mRNA level of DSPP gene, Average [1] [fold] | mRNA level of BSP gene, BSP gene expression, Average [2] [fold] | mRNA level of DMP1 gene, DMP1 gene expression, Average [3] [fold]
1 | KYAKKKKNYK [SEQ ID NO: 33] | 1.813 | 2.092 | 7.709
2 | KYAKKKKSYK [SEQ ID NO: 41] | 1.897 | 1.762 | 7.727
3 | KYAKKKRNYK [SEQ ID NO: 34] | 2.361 | 2.136 | 7.031
4 | KYAKKKRSYK [SEQ ID NO: 42] | 1.811 | 1.882 | 7.367
5 | KYAKKRKNYK [SEQ ID NO: 35] | 1.572 | 2.372 | 7.527
6 | KYAKKRKSYK [SEQ ID NO: 43] | 1.620 | 2.011 | 6.791
7 | KYAKKRRNYK [SEQ ID NO: 37] | 1.67 | 1.999 | 7.032
8 | KYAKKRRSYK [SEQ ID NO: 45] | 2.125 | 1.878 | 7.309
9 | KYAKRKKNYK [SEQ ID NO: 36] | 1.702 | 2.207 | 6.999
10 | KYAKRKKSYK [SEQ ID NO: 44] | 2.121 | 1.699 | 7.663
11 | KYAKRKRNYK [SEQ ID NO: 40] | 2.121 | 2.102 | 7.635
12 | KYAKRKRSYK [SEQ ID NO: 48] | 2.516 | 1.773 | 6.757
13 | KYAKRRKNYK [SEQ ID NO: 38] | 1.705 | 2.507 | 7.777
14 | KYAKRRKSYK [SEQ ID NO: 46] | 1.836 | 1.863 | 7.294
15 | KYAKRRRNYK [SEQ ID NO: 39] | 2.015 | 2.293 | 6.989
16 | KYAKRRRSYK [SEQ ID NO: 47] | 1.620 | 2.063 | 7.107
17 | KYARKKKNYK [SEQ ID NO: 49] | 1.798 | 1.971 | 6.789
18 | KYARKKKSYK [SEQ ID NO: 57] | 1.886 | 1.679 | 6.059
19 | KYARKKRNYK [SEQ ID NO: 50] | 1.661 | 1.901 | 6.109
20 | KYARKKRSYK [SEQ ID NO: 58] | 1.811 | 1.811 | 5.999

Row | Sequence | mRNA level of DSPP gene, Average [1] [fold] | mRNA level of BSP gene, BSP gene expression, Average [2] [fold] | mRNA level of DMP1 gene, DMP1 gene expression, Average [3] [fold]
21 | KYARKRKNYK [SEQ ID NO: 51] | 2.572 | 1.899 | 5.272
22 | KYARKRKSYK [SEQ ID NO: 59] | 2.120 | 1.629 | 5.510
23 | KYARKRRNYK [SEQ ID NO: 53] | 2.037 | 2.036 | 6.483
24 | KYARKRRSYK [SEQ ID NO: 61] | 1.525 | 1.832 | 5.787
25 | KYARRKKNYK [SEQ ID NO: 52] | 2.102 | 1.999 | 5.991
26 | KYARRKKSYK [SEQ ID NO: 60] | 2.195 | 1.991 | 5.078
27 | KYARRKRNYK [SEQ ID NO: 56] | 2.021 | 2.016 | 5.798
28 | KYARRKRSYK [SEQ ID NO: 64] | 1.606 | 2.021 | 6.123
29 | KYARRRKNYK [SEQ ID NO: 54] | 2.005 | 2.1 | 6.531
30 | KYARRRKSYK [SEQ ID NO: 62] | 1.836 | 1.769 | 5.333
31 | KYARRRRNYK [SEQ ID NO: 55] | 1.921 | 1.773 | 6.111
32 | KYARRRRSYK [SEQ ID NO: 63] | 2.120 | 2.237 | 5.727
33 | KYKAKKKSYK [SEQ ID NO: 9] | 3.057 | 2.084 | 9.869
34 | KYKAKKRNYK [SEQ ID NO: 2] | 7.361 | 2.713 | 10.361
35 | KYKAKKRSYK [SEQ ID NO: 10] | 3.811 | 1.998 | 9.998
36 | KYKAKRKNYK [SEQ ID NO: 3] | 8.572 | 2.715 | 11.271
37 | KYKAKRKSYK [SEQ ID NO: 11] | 3.362 | 2.226 | 8.795
38 | KYKAKRRNYK [SEQ ID NO: 5] | 6.67 | 2.77 | 11.001
39 | KYKAKRRSYK [SEQ ID NO: 13] | 2.535 | 2.637 | 9.237
